Results from patent US20140275007A1, “OXAMAZIN ANTIBIOTICS” (priority 2013, published 2014).
In brackets after ≈: the same amount, converted by molar mass.

Assays:
Type in all cases: cell-based, Escherichia coli
[1] = system: E. coli strain ECM6704 (pUCP24, vector); assay: MIC, broth microdilution, isogenic E. coli panel, empty vector strain; conditions: for Ratio of MIC vs vector alone: strain ECM6704, pUCP24, vector (reference strain itself)
Experimental: (§1) Potency and spectrum of compound 1 was determined using the panel of isogenic engineered strains, each containing a plasmid carrying a cloned gene expressing a β-lactamase enzyme. The strain that contained the empty vector was included to evaluate the impact of individual β-lactamases on microbiological activity of compound 1 vs comparator antibiotics. The host strain was wild-type strain of Escherichia coli, ECM5497. The vector plasmid was pUCP24. […] MIC was assessed using broth microdilution method as recommended by the NCCLS (National Committee for Clinical Laboratory Standards. Methods for Dilution Antimicrobial Susceptibility Tests for Bacteria that Grow Aerobically—4th Edition. Approved Standard NCCLS Document M7-A4, Vol. 17, No. 2, NCCLS, Wayne, Pa., January 1997). In this assay multiple dilutions of drugs are being tested for the ability to inhibit growth of the test bacterial strains. The MIC assay is performed in microtiter plates. Antibiotics are diluted two-fold in the x axis, each column containing a single concentration of antibiotic. The assay is performed in MHB with a final bacterial inoculum of 5×10^5 CFU/mL (from an early-log phase culture). Microtiter plates are incubated during 20 h at 35° C. and are read using a microtiterplate reader (Molecular Devices) at 650 nm as well as visual observation using a microtiter plate reading mirror.

[2] = system: E. coli strain ECM6694 (pUCP24::CTX-M-15); assay: MIC, broth microdilution, isogenic E. coli panel, CTX-M-15 strain; conditions: for Ratio of MIC vs vector alone: strain ECM6694, pUCP24::CTX-M-15 vs ECM6704
Experimental: as §1

[3] = system: E. coli strain ECM6713 (pUCP24::TEM-10); assay: MIC, broth microdilution, isogenic E. coli panel, TEM-10 strain; conditions: for Ratio of MIC vs vector alone: strain ECM6713, pUCP24::TEM-10 vs ECM6704
Experimental: as §1

[4] = system: E. coli strain ECM6715 (pUCP24::AmpC); assay: MIC, broth microdilution, isogenic E. coli panel, AmpC strain; conditions: for Ratio of MIC vs vector alone: strain ECM6715, pUCP24::AmpC vs ECM6704
Experimental: as §1

[5] = system: E. coli strain ECM6716 (pUCP24::OXA-48); assay: MIC, broth microdilution, isogenic E. coli panel, OXA-48 strain; conditions: for Ratio of MIC vs vector alone: strain ECM6716, pUCP24::OXA-48 vs ECM6704
Experimental: as §1

[6] = system: E. coli strain ECM6703 (pUCP24::NDM-1); assay: MIC, broth microdilution, isogenic E. coli panel, NDM-1 strain; conditions: for Ratio of MIC vs vector alone: strain ECM6703, pUCP24::NDM-1 vs ECM6704
Experimental: as §1

[7] = system: E. coli strain ECM6711 (pUCP24::VIM-1); assay: MIC, broth microdilution, isogenic E. coli panel, VIM-1 strain; conditions: for Ratio of MIC vs vector alone: strain ECM6711, pUCP24::VIM-1 vs ECM6704
Experimental: as §1

[8] = system: E. coli strain ECM6706 (pUCP24::SME-2); assay: MIC, broth microdilution, isogenic E. coli panel, SME-2 strain; conditions: for Ratio of MIC vs vector alone: strain ECM6706, pUCP24::SME-2 vs ECM6704
Experimental: as §1

[9] = system: E. coli strain ECM6696 (pUCP24::NMC-A); assay: MIC, broth microdilution, isogenic E. coli panel, NMC-A strain; conditions: for Ratio of MIC vs vector alone: strain ECM6696, pUCP24::NMC-A vs ECM6704
Experimental: as §1

[10] = system: E. coli strain ECM6701 (pUCP24::KPC-2); assay: microbe, parasite or virus in culture; conditions: for Ratio of MIC vs vector alone: strain ECM6701, pUCP24::KPC-2 vs ECM6704
Experimental: as §1

[11] = system: E. coli strain ECM6718 (pUCP24::SHV-5); assay: microbe, parasite or virus in culture; conditions: for Ratio of MIC vs vector alone: strain ECM6718, pUCP24::SHV-5 vs ECM6704
Experimental: as §1

[12] = system: E. coli strains expressing individual β-lactamases; assay: Impact of β-lactamases on microbiological activity, whole panel of isogenic engineered strains
Experimental: as §1
Table 2 contains MICs of compound 1 and comparator antibiotics for each test strain and Table 3 contains MIC ratios vs vector only control (strain ECM6704). β-Lactamases present in the test panel belonged to all four currently described classes of enzymes, A, B, C and D. These β-lactamases also represent the major groups of the most relevant enzymes.

[13] = strain ECM6694, pUCP24::CTX-M-15, class A, ESBL
[14] = strain ECM6701, pUCP24::KPC-2, class A, carbapenemase
[15] = strain ECM6718, pUCP24::SHV-5, class A, ESBL
[16] = strain ECM6713, pUCP24::TEM-10, class A, ESBL
[17] = strain ECM6715, pUCP24::AmpC, class C
[18] = strain ECM6703, pUCP24::NDM-1, class B
[19] = strain ECM6711, pUCP24::VIM-1, class B
[20] = strain ECM6706, pUCP24::SME-2, class A, carbapenemase
[21] = strain ECM6696, pUCP24::NMC-A, class A, carbapenemase

Row | SMILES | MIC ([1]; Escherichia coli, 20 h) [µg/mL] | MIC ([2]; Escherichia coli) [µg/mL] | MIC ([3]; Escherichia coli) [µg/mL] | MIC ([4]; Escherichia coli) [µg/mL] | MIC ([5]; Escherichia coli) [µg/mL] | MIC ([6]; Escherichia coli) [µg/mL] | MIC ([7]; Escherichia coli) [µg/mL] | MIC ([8]; Escherichia coli) [µg/mL] | MIC ([9]; Escherichia coli) [µg/mL] | MIC ([10]; Escherichia coli) [µg/mL] | MIC ([11]; Escherichia coli) [µg/mL] | Ratio of MIC vs vector alone [9] [µg/mL] | MIC [2, 13] [µg/mL] | MIC [10, 14] [µg/mL] | MIC [11, 15] [µg/mL] | MIC [3, 16] [µg/mL] | MIC [4, 17] [µg/mL] | MIC [6, 18] [µg/mL] | MIC [7, 19] [µg/mL] | MIC [8, 20] [µg/mL] | also measured
1 | C[C@H]1[C@H](NC(=O)/C(=N\OC(C)(C)C(=O)O)c2csc(N)n2)C(=O)N1S(=O)(=O)O [AZTREONAM, aztreonam] | 0.125 (≈ 0.287 µM) | 32 (≈ 73.5 µM) | > 64 | 8 (≈ 18.4 µM) | 0.125 (≈ 0.287 µM) | ≤ 0.06 | ≤ 0.06 | > 64 | 64 (≈ 147 µM) |  |  |  |  |  |  |  |  |  |  |  | 
2 | NC(=O)OC[C@@H]1[C@H](NC(=O)/C(=N\OCC(=O)O)c2csc(N)n2)C(=O)N1S(=O)(=O)O [CARUMONAM, carumonam] | ≤ 0.06 | 0.125 (≈ 0.268 µM) | 4 (≈ 8.58 µM) | 4 (≈ 8.58 µM) | ≤ 0.06 | ≤ 0.06 | ≤ 0.06 | 0.125 (≈ 0.268 µM) | 0.25 (≈ 0.536 µM) | 0.25 (≈ 0.536 µM) | 2 (≈ 4.29 µM) | 4 |  |  |  |  |  |  |  |  | 
3 | CC(C)(O/N=C(\C(=O)N[C@@H]1C(=O)N2C(C(=O)[O-])=C(C[n+]3ccccc3)CS[C@H]12)c1csc(N)n1)C(=O)O [CEFTAZIDIME, ceftazidime] |  |  |  |  |  |  |  |  |  |  |  |  | 16 (≈ 29.3 µM) | 4 (≈ 7.32 µM) | 8 (≈ 14.6 µM) | 65 (≈ 119 µM) | 16 (≈ 29.3 µM) | >64 | >64 | 1 (≈ 1.83 µM) | MIC [9, 21]: 0.5 µg/mL (≈ 0.915 µM)
4 | CC1(C)[C@H](NC(=O)/C(=N\OCC(=O)O)c2csc(N)n2)C(=O)N1OCC(=O)O [Compound 1, (S,Z)-2-(1-(2-aminothiazol-4-yl)-2-(1-(carboxymethoxy)-2,2-dimethyl-4-oxoazetidin-3-ylamino)-2-oxoethylideneaminooxy)acetic acid] | 2 (≈ 4.81 µM) | 1 (≈ 2.41 µM) | 16 (≈ 38.5 µM) | 2 (≈ 4.81 µM) | 2 (≈ 4.81 µM) | 1 (≈ 2.41 µM) | 1 (≈ 2.41 µM) | 1 (≈ 2.41 µM) | 1 (≈ 2.41 µM) | 1 (≈ 2.41 µM) | 4 (≈ 9.63 µM) | 0.5 |  |  |  |  |  |  |  |  | Ratio of MIC vs vector alone [1]: 1; Ratio of MIC vs vector alone [2]: 0.5; Ratio of MIC vs vector alone [10]: 0.5; Ratio of MIC vs vector alone [11]: 2; Effect of TEM-10 on activity ([3]; only enzyme in the panel with an effect, much less than on other monobactams or ceftazidime): some effect; Ratio of MIC vs vector alone [3]: 8; Ratio of MIC vs vector alone [4]: 1; Ratio of MIC vs vector alone [5]: 1; Ratio of MIC vs vector alone [6]: 0.5; Ratio of MIC vs vector alone [7]: 0.5; Ratio of MIC vs vector alone [8]: 0.5; Effect of class B or class D enzymes on potency ([12]; class B or class D β-lactamases): not affected; Effect of the majority of class A and class C enzymes on potency ([12]; majority of class A and class C β-lactamases): not affected; Effect of β-lactamases on potency, compared with the other β-lactams tested ([12]; whole panel, vs aztreonam, tigemonam, carumonam, ceftazidime): least affected
5 | CC1(C)[C@H](NC(=O)/C(=N\OCC(=O)O)c2csc(N)n2)C(=O)N1OS(=O)(=O)O [TIGEMONAM, tigemonam] |  |  |  |  |  |  |  |  |  |  |  | 2 | 2 (≈ 4.57 µM) | 0.5 (≈ 1.14 µM) | 32 (≈ 73.2 µM) | >64 | 4 (≈ 9.14 µM) | 0.25 (≈ 0.572 µM) | 0.25 (≈ 0.572 µM) | 0.5 (≈ 1.14 µM) | Ratio of MIC vs vector alone [1]: 1; MIC ([1]; strain ECM6704, plasmid pUCP24, vector, MHB, 20 h at 35° C.): 0.25 µg/mL (≈ 0.572 µM); Ratio of MIC vs vector alone [2]: 8; Ratio of MIC vs vector alone [10]: 2; Ratio of MIC vs vector alone [11]: 128; Ratio of MIC vs vector alone [3]: 256; Ratio of MIC vs vector alone [4]: 16; MIC ([5]; strain ECM6716, pUCP24::OXA-48, class D): 0.25 µg/mL (≈ 0.572 µM); Ratio of MIC vs vector alone [5]: 2; Ratio of MIC vs vector alone [6]: 2; Ratio of MIC vs vector alone [7]: 1; Ratio of MIC vs vector alone [8]: 2; MIC [9, 21]: 0.5 µg/mL (≈ 1.14 µM)
